Laboratory results as given in patent US8426407B2, “Preparation of 1-(substituted aryl)-5-trifluoromethyl-2-(1H)pyridone compounds and salts thereof and their applications” (Central South University, priority 2009, dated 2013).

Columns and labels:
[1] = tested on: NIH3T3 fibroblasts; experiment: Inhibition test of compounds on NIH3T3 fibroblasts (MTT method); type: cell-based; settings: for Multiple: multiple of activity versus fluorofenidone from IC50 values; for IC50: MTT, relative to fluorofenidone on a certain plate
Method: Inhibition Test of Compounds on NIH3T3 Fibroblasts
An MTT method is used and comprises steps of: culturing cells in DMEM culture medium including 5% calf serum and preparing the cells into cell suspension of 3×10^4/ml; inoculating in 96-well plate according to 100 μl/well; transferring new culture medium including compounds with different concentration, fluorofenidone and 1% calf serum after cells are adhered, wherein three repeated wells are provided for each concentration; respectively adding 100 μl of MTT solution in each well after 48 hours and 72 hours of administrating (the culture medium is prepared into 5 mg/ml and kept in dark after filtering), sucking out MTT after 4 hours; adding 150 μl of DMSO which is the dissolving liquid of MTT; after 10 min and MTT is completely dissolved, measuring OD value by ELISA reader; calculating IC50 values of fluorofenidone and measured compounds according to inhibition ratio; calculating multiple of activities of measured compounds and fluorofenidone according to IC50 values of fluorofenidone and measured compounds; and obtaining relative IC50 value of measured compounds according to multiple and IC50 value of fluorofenidone on a certain plate.

[2] = tested on: rat unilateral ureteral obstruction renal fibrosis model; experiment: Rat unilateral ureteral obstruction renal fibrosis model; type: in vivo
Method: Observation of Treatment Effect of Compound 13 in a Rat Unilateral Ureteral Obstruction Renal Fibrosis Model
(1) Randomization: nine rats are divided into three groups at random, namely a normal group (n=3); a model group (n=3) and a treatment group (n=3) treated by compound 13 of 15 mg/kg; three rats are in a hutch; and the experimental animals are adaptively fed for two days. […]
HE stained slices of renal tissues are successively observed in fives fields of view of renal tubulointerstitium on upper left side, upper right side, lower left side, lower right side and middle portion by a low power lens and are evaluated according to eight indexes of renal interstitium lesion: renal tubular epithelial cell vacuolar degeneration, renal tubular ectasia, renal tubular atrophy, red cell cast, protein cast, interstitial edema, interstitial fibrosis and interstitial inflammatory cell infiltration; an average value is calculated as the index of renal tubulointerstitial lesion of the sample; and the evaluation standard is based on the reference of Radford M G Jr, Donadio J V Jr, Bergstralh E J, et al. Predicting renal outcome in IgA nephropathy. […]
Masson staining slices of renal tissues are observed in 20 fields of vision for each sample at random under 400X light microscope; percent of blue-stain collagens in the fields of vision is calculated; an average value is determined after semi-quantitative evaluation: no positive staining, 0; <25%, 1; 25-50%, 2; 50-75%, 3; >75%, 4; and the evaluation standard is based on references. […]

[3] = Mus musculus, NIH3T3, 48 h, 48 hours after administration
[4] = Mus musculus, NIH3T3, 72 h, 72 hours after administration

CN1CCN(CCCNc2ccc(-n3cc(C(F)(F)F)ccc3=O)c(Cl)c2)CC1 [Compound 1, 1-(2-chloro-4-((3-(4-methylpiperazin-1-yl)propyl)amino)phenyl)-5-(trifluoromethyl)pyridin-2(1H)-one]
Multiple ([1]; 48 hours): 15.50
Multiple ([1]; 72 hours): 21.60
IC50 [1, 3]: 286 µM
IC50 [1, 4]: 163 µM

O=c1ccc(C(F)(F)F)cn1-c1ccc(NCCCN2CCOCC2)cc1Cl [Compound 2, 1-(2-chloro-4-((3-morpholinylpropyl)amino)phenyl)-5-(trifluoromethyl)pyridin-2(1H)-one]
Multiple ([1]; 48 hours): 18.36
Multiple ([1]; 72 hours): 21.87
IC50 [1, 3]: 241 µM
IC50 [1, 4]: 161 µM

O=c1ccc(C(F)(F)F)cn1-c1ccc(NCCCN2CCCCC2)cc1Cl [Compound 3, 1-(2-chloro-4-((3-piperidin-1-yl)propylamino)phenyl)-5-(trifluoromethyl)pyridin-2(1H)-one]
IC50 ([1]; 48 hours after administration): 238 µM
Multiple ([1]; 48 hours): 18.60
IC50 ([1]; 72 hours after administration): 65 µM
Multiple ([1]; 72 hours): 54.0

CCCCOCCCNc1ccc(-n2cc(C(F)(F)F)ccc2=O)c(Cl)c1 [Compound 4, 1-(4-((3-butoxypropyl)amino)-2-chlorophenyl)-5-(trifluoromethyl) pyridin-2(1H)-one]
Multiple ([1]; 48 hours): 6.31
Multiple ([1]; 72 hours): 11.31
IC50 [1, 3]: 702 µM
IC50 [1, 4]: 311 µM

O=c1ccc(C(F)(F)F)cn1-c1ccc(NCCO)cc1Cl [Compound 5, 1-(2-chloro-4-((2-hydroxyethyl)amino)phenyl)-5-(trifluoromethyl)pyridin-2(1H)-one]
Multiple ([1]; 48 hours): 3.21
Multiple ([1]; 72 hours): 5.57
IC50 [1, 3]: 1380 µM
IC50 [1, 4]: 632 µM

O=c1ccc(C(F)(F)F)cn1-c1ccc(N(CCO)CCO)cc1Cl [Compound 6, 1-(4-(N,N-(2-hydroxyethyl)amino)-2-chlorophenyl)-5-(trifluoromethyl)pyridin-2(1H)-one]
Multiple ([1]; 48 hours): 6.91
Multiple ([1]; 72 hours): 6.00
IC50 [1, 3]: 641 µM
IC50 [1, 4]: 587 µM

Cl.O=c1ccc(C(F)(F)F)cn1-c1ccc(NCCCN2CCCCC2)cc1Cl [Compound 7, 1-(2-chloro-4-(((3-piperidin-1-yl)propyl)amino)phenyl)-5-(trifluoromethyl)pyridin-2(1H)-one hydrochloride]
Multiple ([1]; 48 hours): 17.09
Multiple ([1]; 72 hours): 71.17
IC50 [1, 3]: 259 µM
IC50 [1, 4]: 49 µM

O=c1ccc(C(F)(F)F)cn1-c1ccc(NCCOCCO)cc1Cl [Compound 8, 1-(2-chloro-4-((2-(2-hydroxyethoxy)ethyl)amino)phenyl)-5-(trifluoromethyl)pyridin-2(1H)-one]
Multiple ([1]; 48 hours): 9.09
Multiple ([1]; 72 hours): 10.59
IC50 [1, 3]: 487 µM
IC50 [1, 4]: 332 µM

O=c1ccc(C(F)(F)F)cn1-c1ccc(NCCN2CCCCC2)cc1Cl [Compound 10, 1-(2-chloro-4-((2-(piperidyl-1-yl)ethyl)amino)phenyl)-5-(trifluoromethyl)pyridin-2(1H)-one]
Multiple ([1]; 48 hours): 20.73
Multiple ([1]; 72 hours): 56.50
IC50 [1, 3]: 214 µM
IC50 [1, 4]: 62 µM

O=c1ccc(C(F)(F)F)cn1-c1ccc(NCCN2CCOCC2)cc1Cl [Compound 11, 1-(2-chloro-4-((2-morpholinylethyl)amino)-phenyl)-5-(trifluoromethyl)pyridin-2(1H)-one]
Multiple ([1]; 48 hours): 25.50
Multiple ([1]; 72 hours): 62.50
IC50 [1, 3]: 174 µM
IC50 [1, 4]: 56 µM

CN1CCN(CCNc2ccc(-n3cc(C(F)(F)F)ccc3=O)c(Cl)c2)CC1 [Compound 12, 1-(2-chloro-4-((2-(4-methylpiperazin-1-yl)ethyl)amino)phenyl)-5-(trifluoromethyl)pyridin-2(1H)-one]
Multiple ([1]; 48 hours): 13.42
Multiple ([1]; 72 hours): 33.33
IC50 [1, 3]: 330 µM
IC50 [1, 4]: 106 µM

O=c1ccc(C(F)(F)F)cn1-c1ccc(NCCN2CCN(CCO)CC2)cc1Cl [Compound 13, 1-(2-chloro-4-((2-(4-(2-hydroxyethyl)piperazin-1-yl)ethyl)amino)-phenyl)-5-(trifluoromethyl)pyridin-2(1H)-one]
Treatment effect on renal fibrosis (conclusion) ([2]; 15 mg/kg): can effectively treat renal fibrosis
Score (X ± S), renal interstitium collagens of left kidneys, MASSON staining ([2]; 15 mg/kg intragastric once per day for 12 days, SD rats n=3, model group 2.45 ± 0.38, normal group 0.25 ± 0.00, p < 0.01 vs model): 1.52 ± 0.16^⋆⋆**
Score (X ± S), index of renal tubulointerstitial lesions of obstruction kidneys, HE staining ([2]; 15 mg/kg intragastric once per day for 12 days, SD rats n=3, model group 9.00 ± 1.00, normal group 0.33 ± 0.12, p < 0.01 vs model): 7.00 ± 0.35^⋆⋆**
Multiple ([1]; 48 hours): 44.14
Multiple ([1]; 72 hours): 57.20
IC50 [1, 3]: 100 µM
IC50 [1, 4]: 62 µM
